Test results from the NIST ThermoML archive (doi:10.1021/je400491p).

Conditions: 101.33 kPa, Liquid; for viscosity: Capillary tube (Ostwald / Ubbelohde) method; for mass density: Pycnometric method

OCCO [1,2-ethanediol]
Conditions | mass density [kg/m3] | viscosity [mPa·s]
313.15 K | 1098.9 | 9.309
323.15 K | 1091.7 | 6.818
333.15 K | 1084.2 | 5.027
343.15 K | 1078.1 | 3.915
